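Cultured in 96-well plates, cells were exposed to test compound for 48 hours across five concentrations. The concentration for 50% growth inhibition is given as GI50.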 Activity calls are given as the source filed them. Rule as the data show it: active = GI50 up to about 1.1 µM and inactive = higher.
Tests used:
Assay in all cases: growth of human tumour cells (NCI), 48 h
OVCAR-4 = tested on: OVCAR-4
TK-10 = tested on: TK-10
CAKI-1 = tested on: CAKI-1
MCF7 = tested on: MCF7
U-251 = tested on: U-251
COLO 205 = tested on: COLO 205
OVCAR-5 = tested on: OVCAR-5
SF-539 = tested on: SF-539
Malme-3M = tested on: Malme-3M
SK-MEL-28 = tested on: SK-MEL-28
T47D = tested on: T47D
KM12 = tested on: KM12
RPMI-8226 = tested on: RPMI-8226
HCC 2998 = tested on: HCC 2998
OVCAR-3 = tested on: OVCAR-3
HCT-116 = tested on: HCT-116
LOX IMVI = tested on: LOX IMVI
M14 = tested on: M14
SR = tested on: SR
MDA-MB-435 = tested on: MDA-MB-435

Measured: GI50

CC1(C)CN=C(Nc2ccc(Cl)cc2)S1
inactive: OVCAR-4 72.3 µM | TK-10 65.8 µM | CAKI-1 > 100 µM | MCF7 > 100 µM | U-251 > 100 µM | COLO 205 > 100 µM | OVCAR-5 > 100 µM | SF-539 > 100 µM | Malme-3M > 100 µM | SK-MEL-28 > 100 µM | T47D 42.9 µM | KM12 90.4 µM | RPMI-8226 52.6 µM | HCC 2998 > 100 µM | OVCAR-3 71.9 µM | HCT-116 69.5 µM | LOX IMVI 78.3 µM | M14 > 100 µM | SR 65.6 µM | MDA-MB-435 > 100 µM

— ChEMBL document CHEMBL1201862, “PubChem BioAssay data set” (2004)
